According to BindingDB's records for doi:10.1021/acs.jmedchem.0c00012 (University of Perugia, 2020):

Molecular target: T1, Nuclear receptor subfamily 1 group I member 2 (Homo sapiens, UniProt O75469)
T1 sequence (O75469 whole entry): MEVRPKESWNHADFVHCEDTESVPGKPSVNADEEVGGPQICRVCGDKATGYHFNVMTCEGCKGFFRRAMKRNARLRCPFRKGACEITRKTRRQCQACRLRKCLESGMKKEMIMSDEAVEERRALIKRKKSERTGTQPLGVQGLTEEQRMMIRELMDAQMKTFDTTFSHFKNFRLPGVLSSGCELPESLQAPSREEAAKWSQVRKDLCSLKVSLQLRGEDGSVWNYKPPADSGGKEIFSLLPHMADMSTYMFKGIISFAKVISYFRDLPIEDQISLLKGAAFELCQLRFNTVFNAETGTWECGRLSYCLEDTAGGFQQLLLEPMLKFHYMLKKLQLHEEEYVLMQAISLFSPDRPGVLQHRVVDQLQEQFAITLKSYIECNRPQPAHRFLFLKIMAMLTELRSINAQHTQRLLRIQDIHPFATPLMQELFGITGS
Assay: Agonist activity at His-tagged PXR-LBD/SRC-1p (unknown origin) expressed in Escherichia coli BL21(DE3) by coactivator recruitment based Alpha-screen assay

- EC50: 3.3 µM
Compound: Cc1c(C)c2c(c(C)c1O)CC[C@@](C)(CCC[C@H](C)CCC[C@H](C)CCCC(C)C(=O)O)O2 (stereo partly specified)
